Laboratory results as given in paper PMC8256712, “Crystal structures of Aspergillus oryzae Rib2 deaminase: the functional mechanism involved in riboflavin biosynthesis” (IUCrJ, 2021).

Legend:
[1] = target: T1, AoRib2 (Aspergillus oryzae, UniProt Q2UFA9); assay: deaminase assay, fluorescence after diacetyl modification; format: biochemical; conditions: 310 K, 30 min; DARIPP made enzymatically in situ from GTP
T1 construct: gene rib2; full length, 222 residues; monomer
T1 sequence (Q2UFA9 1-222): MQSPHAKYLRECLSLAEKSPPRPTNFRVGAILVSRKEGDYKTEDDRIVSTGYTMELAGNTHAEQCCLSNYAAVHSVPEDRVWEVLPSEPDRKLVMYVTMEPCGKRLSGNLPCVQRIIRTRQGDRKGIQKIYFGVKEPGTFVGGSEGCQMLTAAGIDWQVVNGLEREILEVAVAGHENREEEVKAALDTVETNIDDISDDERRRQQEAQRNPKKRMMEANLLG

[2] = target: T2, AoRib2_188 (Aspergillus oryzae, UniProt Q2UFA9); assay: X-ray crystal structure, soaked, […] A; format: binding; conditions: crystals pH 6.5 (MES), soaked 20 min in 50-100 mM DARIPP; active site with Zn2+
T2 construct: gene rib2; deaminase domain, residues 1-188 of 222, C-terminal segment deleted; Zn ligands His61, Cys102, Cys112, general base Glu63
T2 sequence (Q2UFA9 1-188): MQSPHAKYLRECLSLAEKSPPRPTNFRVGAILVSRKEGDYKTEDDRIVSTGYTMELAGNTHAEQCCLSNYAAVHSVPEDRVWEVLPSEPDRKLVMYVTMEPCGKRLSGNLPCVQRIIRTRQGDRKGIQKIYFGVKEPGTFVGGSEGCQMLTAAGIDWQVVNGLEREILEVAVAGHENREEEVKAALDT

## Nc1nc(NC[C@H](O)[C@H](O)[C@H](O)COP(=O)(O)O)c(N)c(=O)[nH]1 [DARIPP, 2,5-diamino-6-ribitylamino-4(3H)-pyrimidinone 5′-phosphate]
[1]
  deaminase assay, fluorescence after diacetyl modification: the recombinant protein is able to catalyze the conversion of DARIPP to ARIPP
[2]
  X-ray crystal structure, soaked, 1.58 A: DARIPP could be built nicely into strong electron density and is firmly embedded in the active site
